Test results as given in patent US20140050779A1, “[…]-2 INHIBITORS AND USES THEREOF” (SINGAPORE HEALTH SERVICES PTE. LTD., priority 2011, published 2014).

Columns and labels:
[1] = test system: mouse eyes treated with −15D spectacle lens; test: spectacle lens-induced myopia in mice, axial length and refractive error; type: in vivo; conditions: lens with 0.1% drug; for axial length: 2 weeks and 4 weeks, vs lens treated eyes; for refractive error: infrared photorefractor
Method: Topical applications were administered to both eyes at the same time each day (approximately 9:00 AM) commencing on the 12th day (initiation of spectacle lens treatment). A compatible drug level was determined prior to the in vivo use in a tissue culture study with mouse scleral fibroblasts. […] This treatment schedule continued for four weeks starting on post-natal day 12 continued until post-natal day 42. All measurements were taken at post-natal day 42, the equivalent of 4 weeks of spectacle lens wear.
Each eye was refracted every week to measure the refractive error using automated infrared photorefraction as described in Barathi, V. A., Beuerman, R. W., Schaeffel, F., 2009a, “Effects of unilateral topical atropine on binocular pupil responses and eye growth in mice”, Vision Res 49, 383-387. By using Optical Low Coherence Interferometry (OLCI, AC Master, Carl-Zeiss), the axial length of the eye was measured in-vivo as described in Yin G C, Gentle A, McBrien N A, “Muscarinic antagonist control of myopia: a molecular search for the M1 receptor in chick”, Mol. Vis. 2004; 13(10):787-93 and Barathi, V. A., Boopathi, V. G., Yap, E. P., Beuerman, R. W., 2008, “Two models of experimental myopia in the mouse”, Vision Res 48, 904-916. […] Differences of refractive power and axial length between eyes were calculated. Independent t-tests were used to compare experimental and control eyes in wild type and TGM2-deleted or M1-M5 mutant mice.
Right eyes were experimental and left eyes served as contra-lateral control. In vivo axial length was measured at 2 weeks and 4 weeks after treatment. […] Automated infrared photorefractor was used to measure the refractive error measurements.

[2] = test system: TG-2; test: Western blot of TG proteins in mouse scleral fibroblasts after muscarinic agents; type: cell-based; conditions: very low concentrations
Method: (§1) All cells used in examples described herein were between passages 2-4. Passaged cells were plated at a concentration of 2×10^5/mL into 6 well plates containing DMEM with 10% FBS. The cells were seen to attach to the bottom of the culture wells after 4 hours. Old media was removed from wells and 1 mL of drug was added with fresh full medium and incubated at 37° C. Fresh drugs were replaced daily consecutively for the next 5 days to avoid oxidation. The drugs/media was removed and wells were washed twice with 1×PBS. 200 μl of RIPA lysis buffer was added per well and incubated for 5 minutes and cells were scrapped into an eppendorf tube. The cells were stored at −20° C. until sonication. The cells were sonicated on ice thrice at 20% output power for 5 seconds each time and rested 1 minute in between each turn. Cell debris was spun down at 12000 rpm for 20 minutes. The supernatant was poured into a new eppendorf tube and cell concentrations were determined using the Dc Protein assay Kit (Bio-Rad, MA). Passaged cells were plated at a concentration of 1×10^5 into 6 well plates containing DMEM with 10% FBS. The cells were seen to attach to the bottom of the culture wells after 4 hours. Freshly prepared muscarinic agents' at base line, 0.1, 1, 10 and 100 μM concentrations were added for 5 days (Table 2). The culture medium was removed and fresh medium containing the same muscarinic drug added every day to avoid drug changes such as atropine oxidation. Cell lysate was collected for relative quantitative (q) PCR and protein analysis at day 5.
(§2) The cells were lysed by sonification in 1×RIPA lysis buffer (santa cruz biotechnology, Sc-24948) with 10 μl PMSF solution, 10 μl sodium orthovanadate solution and 20 μl protease inhibitor cocktail solution. After centrifugation at 20,000×g at 4° C. for 20 minutes, and the supernatant collected. The protein content in the supernatants was measured using the DC Protein Assay kit (Bio-Rad, MA) following the manufacturer's instructions. Samples were stored at −80° C. until assayed.
(§3) The mouse and human scleral fibroblasts were treated with atropine or carbachol at 0.01, 0.1, 1, 5 and 10 μM concentrations for 5 days. Following 5 days of treatment, the total cellular protein was extracted from these cells and TG proteins detected via Western blot analysis.
Human and, mouse scleral fibroblast proteins in the supernatant were separated by SDS-PAGE, transferred to nitrocellulose membranes, blocked in 5% BSA in TBST (10 mM Tris-HCl [pH 8.0], 150 mM NaCl, and […] Tween-20) for 2 hours at room temperature, and incubated with the same anti-TG-2 antibody described herein at a dilution of 1:1000 and anti β-tubulin antibodies used as a positive control, for 1 hour at room temperature. The membranes were washed 3 times in TBST and incubated with HRP-conjugated secondary antibody (Chemicon International) at a dilution of 1:2500 for 1 hour at room temperature. Immunoreactive bands were visualized using the enhanced chemiluminescence method (GE Healthcare, Buckinghamshire, UK). The membrane was wrapped in plastic and placed against an X-ray film to expose for an appropriate length of time (30 seconds-5 minutes).

[3] = test system: TG-2; test: TG-2 colorimetric microassay (transamidase activity) in lysate of treated mouse scleral fibroblasts; type: cell-based; conditions: for transamidase activity of endogenous cellular TG-2: mouse scleral fibroblasts, 0.1, 1, 10 and 100 μM for 5 days, concentration-dependent
Method: as §1, with “The cells were seen to attach to the bottom of the culture wells after 4 hours.” left out
(§4) This assay was designed to assess the cross-linking activity of TG-2 between two proteins. TG activity was measured with TG-2 colorimetric Microassay kit (TG-Covtest, Covalab, Cambridge, UK). 150-200 μg of total protein was used per well for the TG-2 assay. Transglutaminase standards (Sigma) were used as a positive control. EDTA was used to inhibit the enzyme activity as a negative control.
(§5) The approximate volume of reagents to use, the wavelengths to use to read absorbance, the incubation times were determined from a previous study that have carried out experiments with similar principles as described in Perez Alea M, Kitamura M, Martin G, Thomas V, Hitomi K, El Alaoui S., “Development of an isoenzyme-specific colorimetric assay for tissue transglutaminase 2 cross-linking activity”, Anal Biochem. 2009 Jun. 15; 389(2):150-6, Epub 2009 March 24. All reagents used and protein coated plates were part of the kit. Biotin cadaverine was reconstituted with 6 ml of deionized water and 90 μl was added into each well of the 96 well plate that comes coated with CBZ-GLN-GLY. The rest of the steps were followed as in the manufacturer's instructions and finally absorbance was read at 450 nm using a microplate reader (TECAN, Austria). All incubations were performed with gentle shaking on a laboratory orbital shaker.
(§6) The TG-2 colorimetric assay serves as a high throughput and quantitative assay to assess transamidase activity. […] In vivo studies with these drugs were also conducted to determine the effect on myopia development (see FIGS. 14 and 15).

[4] = test system: TG-2; test: Western blot of TG proteins in human scleral fibroblasts after muscarinic agents; type: cell-based; conditions: very low concentrations
Method: as §1, §2, §3
Human and, mouse scleral fibroblast proteins in the supernatant were separated by SDS-PAGE, transferred to nitrocellulose membranes, blocked in 5% BSA in TBST (10 mM Tris-HCl [pH 8.0], 150 mM NaCl, and […] Tween-20) for 2 hours at room temperature, and incubated with the same anti-TG-2 antibody described herein at a dilution of 1:1000 and anti β-tubulin antibodies used as a positive control, for 1 hour at room temperature. […]

[5] = test system: TG-2; test: TG-2 colorimetric microassay (transamidase activity) in lysate of treated human scleral fibroblasts; type: cell-based; conditions: for transamidase activity of endogenous cellular TG-2: human scleral fibroblasts, 0.1, 1, 10 and 100 μM for 5 days, concentration-dependent
Method: as §1, with “The cells were seen to attach to the bottom of the culture wells after 4 hours.” left out
as §4, §5, §6

[6] = test system: cultured SF cells; test: effect of TG-2 inhibitors on cultured scleral fibroblast growth (XCELLigence); type: cell-based; conditions: for SF cell growth and cell numbers: 0.1 μM, 5 days; for SF cell growth and cell numbers at higher concentrations: above 0.1 μM, concentration dependent manner
Method: To test the effect of TG-2 inhibitors on cultured scleral fibroblast growth, cultured SF cells at passage 4 were treated with TG-2 inhibitors at baseline, 0.1, 1, 10 and 100 μM for 5 days. The SF cell growth was monitored by XCELLigence cell impedance.

Compound | axial length [1] | refractive error [1] | TG-2 protein level (reduction) [2] | transamidase activity of endogenous cellular TG-2 [3] | TG-2 protein level (reduction) [4] | transamidase activity of endogenous cellular TG-2 [5] | SF cell growth and cell numbers [6] | SF cell growth and cell numbers at higher concentrations [6] | further results
NC(=O)C(c1ccccc1)(c1ccccc1)[C@@H]1CCN(CCc2ccc3c(c2)CCO3)C1 [darifenacin] | significantly reduced | shifted from myopic to hyperoic | significant | reduced | significant | reduced | – | – | TG-2 activity, strongest reduction among the antagonists ([3]; mouse scleral fibroblasts, low concentrations): most significantly reduced; TG-2 activity, strongest reduction among the antagonists ([5]; human scleral fibroblasts, all concentrations): most significantly reduced; TG-2 activity, strongest reduction among the antagonists ([5]; human scleral fibroblasts, low concentrations): most significantly reduced; TG-2 activity as compared to atropine ([5]; human scleral fibroblasts, himbacine 0.1, 1, 10 & 100 μM, darifenacin 0.1, 1 & 10 μM): more significantly reduced
TAMRA-DON [R002] | – | – | – | – | – | – | significantly reduced | further reduced | –
CCN(CC)CC1CCCCN1CC(=O)N1c2ccccc2C(=O)Nc2cccnc21 (stereo not shown) [AFDX-116] | – | – | – | reduced | – | reduced | – | – | –
C[N+]1(C)CCC(OC(=O)C(c2ccccc2)c2ccccc2)CC1.[I-] [4-DAMP, 1,1-Dimethyl-4-diphenylacetoxypiperidinium iodide] | significantly reduced | shifted from myopic to hyperoic | significant | reduced | significant | reduced | – | – | –
CN1CCN(CC(=O)N2c3ccccc3C(=O)Nc3cccnc32)CC1 [pirenzepine] | – | – | – | reduced | – | reduced | – | – | –
CC(=O)CSc1n(C)cc[n+]1C.[Cl-] [D003] | – | – | – | – | – | – | significantly reduced | further reduced | cell morphology [6]: No change
